The record followed here is PubChem BioAssay AID276 (DTP/NCI, 2004).

This test concerns B6C3F1 mice, Lewis lung carcinoma iv, survival T/C. Kind of test: NCI In Vivo Anticancer Drug Screen. Data for tumor model Lewis Lung Carcinoma (intravenous) in B6C3F1 mice. As to conditions: endpoint: median survival time, schedule: Q01DX009 (ip), higher = longer survival. The gist of the method:
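Read-out is survival, expressed as the treated-group measurement over the vehicle control-group measurement. Animals bore a transplantable tumor and were given compound.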

[1] abbreviates: dose: 6.25 mg/kg/injection, vehicle: saline with Tween-80.
Setting [2] is: dose: 12.5 mg/kg/injection, vehicle: saline with Tween-80.
[3] abbreviates: dose: 25.0 mg/kg/injection, vehicle: saline with Tween-80.
[4] abbreviates: dose: 50.0 mg/kg/injection, vehicle: saline with Tween-80.
[5] abbreviates: dose: 100.0 mg/kg/injection, vehicle: saline with Tween-80.
The mark [6] stands for this setting: dose: 100.0 mg/kg/injection, vehicle: Klucel (hydroxypropylcellulose) (HPC).
The mark [7] stands for this setting: dose: 200.0 mg/kg/injection, vehicle: Klucel (hydroxypropylcellulose) (HPC).
[8] abbreviates: dose: 12.5 mg/kg/injection, vehicle: saline.
[9] abbreviates: dose: 25.0 mg/kg/injection, vehicle: saline.
Setting [10] is: dose: 50.0 mg/kg/injection, vehicle: saline.
Where [11] appears, read: dose: 100.0 mg/kg/injection, vehicle: saline.
Where [12] appears, read: dose: 200.0 mg/kg/injection, vehicle: saline.
Where [13] appears, read: dose: 400.0 mg/kg/injection, vehicle: saline.
Setting [14] is: dose: 800.0 mg/kg/injection, vehicle: saline.

Where “and” joins values, the source holds several entries; their conditions need not be identical. Equal entries are not always repeated. Inconclusive results and toxic doses are left out.

Regarding `NC(=O)c1c[se]c(C2OC(CO)C(O)C2O)n1` (centres undefined), the T/C (dose: 0.75 mg/kg/injection, vehicle: water) is 107 % of control; the T/C (dose: 1.5 mg/kg/injection, vehicle: water) is 110 % of control; the T/C (dose: 3.0 mg/kg/injection, vehicle: water) is 152 % of control and 153 % of control; the T/C (dose: 6.0 mg/kg/injection, vehicle: water) is 297 % of control; the T/C (dose: 12.0 mg/kg/injection, vehicle: water) is 297 % of control and 355 % of control; the T/C (dose: 13.0 mg/kg/injection, vehicle: water) is 315 % of control. Also, the T/C is, setting by setting: (dose: 24.0 mg/kg/injection, vehicle: water) 297 % of control; (dose: 25.0 mg/kg/injection, vehicle: water) 355 % of control; (dose: 33.0 mg/kg/injection, vehicle: water) 94 % of control; (dose: 75.0 mg/kg/injection, vehicle: water) 315 % of control; (dose: 100.0 mg/kg/injection, vehicle: water) 120 % of control.
For the compound `Nc1nc2ccc(NCc3ccc(C(=O)NC(CCC(=O)O)C(=O)O)cc3)cc2c(=O)[nH]1` (centres undefined), the T/C is, setting by setting: under setting [1], 111 % of control; under setting [2], 97 % of control; under setting [3], 100 % of control; under setting [4], 116 % of control; under setting [5], 119 % of control.
With `COC(=O)Nc1cn2ccc(C(Cl)=C(Cl)Cl)cc2n1`, the T/C is 116 % of control under setting [6] and 103 % of control under setting [7].
On to `CN1N=C(N)c2cn(C3OC(COP(=O)(O)O)C(O)C3O)c3ncnc1c23` (centres undefined), for which, under “dose: 6.25 mg/kg/injection, vehicle: water”, the T/C was 98 % of control.
As for `O=N[O-].O=N[O-].O=N[O-].[Co+3].[NH-]CC[N-]CC[NH-]`, the T/C was 98 % of control (dose: 6.25 mg/kg/injection, vehicle: saline); 115 % of control under setting [8]; 117 % of control under setting [9]; 90 % of control under setting [10].
In the case of `COC(=O)C(N)Cc1ccc(O)c(O)c1` (centres undefined), the T/C reads like this: under setting [8], 107 % of control; under setting [9], 103 % of control; under setting [10], 101 % of control; under setting [11], 109 % of control; under setting [12], 92 % of control; under setting [13], 95 % of control. For the same compound, the T/C under setting [14] was 95 % of control.
On to `CCN1/C(=C/C=C/C=C\C=C\c2sc3ccc4ccccc4c3[n+]2CC)Sc2ccc3ccccc3c21`, for which the T/C (dose: 1.25 mg/kg/injection, vehicle: saline with Tween-80) was 104 % of control; the T/C (dose: 2.5 mg/kg/injection, vehicle: saline with Tween-80) was 100 % of control and 103 % of control; the T/C (dose: 5.0 mg/kg/injection, vehicle: saline with Tween-80) is 104 % of control; the T/C (dose: 10.0 mg/kg/injection, vehicle: saline with Tween-80) was 98 % of control; the T/C (dose: 20.0 mg/kg/injection, vehicle: saline with Tween-80) is 103 % of control.
`O=[N+]([O-])c1nccn1CC(O)CO` (centres undefined): the T/C was 100 % of control under setting [8]; 105 % of control under setting [9]; 104 % of control under setting [10]; 102 % of control under setting [11]; 106 % of control under setting [12]; 107 % of control under setting [13].
For `C[Si](C)(C)O/C=C1/CCOC1=O`, the T/C by setting is: under setting [8], 93 % of control; under setting [9], 101 % of control; under setting [10], 94 % of control; under setting [11], 97 % of control; under setting [12], 91 % of control; under setting [13], 94 % of control.
`O=CC(O)C(O)C(O)C(O)CO` (centres undefined): the T/C was 101 % of control (dose: 75.0 mg/kg/injection, vehicle: saline); 97 % of control (dose: 150.0 mg/kg/injection, vehicle: saline); 97 % of control (dose: 300.0 mg/kg/injection, vehicle: saline); 97 % of control (dose: 600.0 mg/kg/injection, vehicle: saline); 96 % of control (dose: 1200.0 mg/kg/injection, vehicle: saline).
Turning to `CCC(=O)Sc1ccccc1C(=O)Nc1ccc(Cl)cc1`, the T/C was 94 % of control under setting [3]; 100 % of control under setting [4]; 107 % of control under setting [5]; 89 % of control (dose: 200.0 mg/kg/injection, vehicle: saline with Tween-80); 105 % of control (dose: 400.0 mg/kg/injection, vehicle: saline with Tween-80).
As for `O/N=C/c1ccccc1O.O/N=C/c1ccccc1O.[Cu]`, the T/C runs as follows: (dose: 1.56 mg/kg/injection, vehicle: saline with Tween-80) 113 % of control; (dose: 3.12 mg/kg/injection, vehicle: saline with Tween-80) 100 % of control; under setting [1], 104 % of control; under setting [2], 96 % of control; under setting [3], 104 % of control; under setting [4], 96 % of control.
`Nc1ccn(C2OC(CO)C(O)C2O)c(=O)n1` (centres undefined): the T/C by setting is: (dose: 1.0 mg/kg/injection, vehicle: saline) 98 % of control; (dose: 2.0 mg/kg/injection, vehicle: saline) 97 % of control; (dose: 4.0 mg/kg/injection, vehicle: saline) 100 % of control; (dose: 15.0 mg/kg/injection, vehicle: saline) 110 % of control; under setting [10], 160 % of control; under setting [11], 203 % of control.
On to `COC1CC(C)C(OC)C2=CC(=O)C=C(NC(=O)/C(C)=C/C=C\C(C)C(OC(N)=O)/C(C)=C\C(C)C1OC)C2=O` (centres undefined), for which the T/C is 99 % of control (dose: 5.0 mg/kg/injection, vehicle: saline + Tween-80 + alcohol) and 112 % of control (dose: 10.0 mg/kg/injection, vehicle: saline + Tween-80 + alcohol).
As for `CC1C=NNC1=O` (centres undefined), the T/C by setting is: (dose: 50.0 mg/kg/injection, vehicle: Klucel (hydroxypropylcellulose) (HPC)) 103 % of control; under setting [6], 103 % of control; under setting [7], 113 % of control; (dose: 400.0 mg/kg/injection, vehicle: Klucel (hydroxypropylcellulose) (HPC)) 121 % of control; (dose: 800.0 mg/kg/injection, vehicle: Klucel (hydroxypropylcellulose) (HPC)) 118 % of control.
For the compound `CN(C)CCC(=O)C(=Cc1ccc(O)cc1)C(=O)CCN(C)C`, the T/C was 97 % of control under setting [8]; 101 % of control under setting [9]; 102 % of control under setting [10]; 105 % of control and 106 % of control under setting [11]; 104 % of control and 107 % of control under setting [12].
Take `CC(=O)O[C@@]1(C)[C@@H](C)C(=O)O[C@@H]2CCN3CC=C(COC(=O)[C@]1(C)O)[C@H]23`: the T/C under setting [3] is 110 % of control, the T/C under setting [4] was 113 % of control and the T/C under setting [5] was 285 % of control.
As to `O=C(O)C1CC(O)CN1` (centres undefined), the T/C under setting [10] was 98 % of control; the T/C under setting [11] is 91 % of control; the T/C under setting [12] is 91 % of control; the T/C under setting [13] is 114 % of control; the T/C under setting [14] is 109 % of control.
As to `CC(=O)OCC1OC([S-])C(OC(C)=O)C(OC(C)=O)C1OC(C)=O.CC[PH+](CC)CC.CC[PH+](CC)CC.[Au].[Au]` (centres undefined), the T/C was 91 % of control and 104 % of control (dose: 0.62 mg/kg/injection, vehicle: Klucel (hydroxypropylcellulose) (HPC)); 98 % of control and 106 % of control (dose: 1.25 mg/kg/injection, vehicle: Klucel (hydroxypropylcellulose) (HPC)); 100 % of control and 109 % of control (dose: 2.5 mg/kg/injection, vehicle: Klucel (hydroxypropylcellulose) (HPC)); 101 % of control (dose: 5.0 mg/kg/injection, vehicle: Klucel (hydroxypropylcellulose) (HPC)); 102 % of control and 104 % of control (dose: 10.0 mg/kg/injection, vehicle: Klucel (hydroxypropylcellulose) (HPC)).
